The values that follow come from patent publication US20260327246A1, “FUSED RING KRAS INHIBITORS FOR TREATING DISEASE” (BLOSSOMHILL THERAPEUTICS, INC., priority 2023, published 2026).

One assay has as its system SW620 (KRAS G12V). The assay can be described thus: Cell Proliferation Assay (CellTiter-Glo 2.0), SW620. The class given is cell-based. The following applies: Homo sapiens, SW-620; SW620 (KRAS G12V) cells; 72 hours at 37° C., 5% CO2; read-out: Anti-proliferation IC50, SW620 (KRAS G12V). As for the experimental part:
(§1) Two thousand KRAS mutant cells per well are seeded in 384-well white plate and then treated with indicated compounds for 72 hours at 37° C. and 5% CO2. Cell proliferation is measured using CellTiter-Glo 2.0 luciferase-based ATP detection assay (Promega, Madison, WI) following the manufacturer's protocol. IC50 values are determined using Prism software (GraphPad Software, San Diego, CA).
In general terms: Cellular ATP, detected with luciferase, serves as a proxy for viable cell number.

Another assay deals with GP2D (KRAS G12D). The assay can be described thus: Cell Proliferation Assay (CellTiter-Glo 2.0), GP2D. The assay is classed as cell-based. The settings on record: GP2D (KRAS G12D) cells; 72 hours at 37° C., 5% CO2; read-out: Anti-proliferation IC50, GP2D (KRAS G12D). As for the experimental part: as §1

On to `C#Cc1c(F)ccc2cc(O)cc(-c3nc4c5c(nc(OC[C@@]67CCCN6C[C@H](F)C7)nc5c3F)N3CCCOC[C@H]3CC4)c12` [compound 1, 5-ethynyl-6-fluoro-4-[(8aR)-4-fluoro-2-{[(2R,7aS)-2-fluorotetrahydro-1H-pyrrolizin-7a(5H)-yl]methoxy}-7,8,8a,9,12,13-hexahydro-11H-10-oxa-1,3,6,13a-tetraazanaphtho[1,8-ab]heptalen-5-yl]naphthalen-2-ol], for which the IC50 is 3.6 nM in the assay with SW620 (KRAS G12V) and 1.1 nM in the assay on GP2D (KRAS G12D).
The corresponding values for `C#Cc1c(F)ccc2cc(O)cc(-c3nc4c5c(nc(OC[C@@]67CCCN6C[C@H](F)C7)nc5c3F)N3CCCOC[C@@H]3CC4)c12` [compound 2, 5-ethynyl-6-fluoro-4-[(8aS)-4-fluoro-2-{[(2R,7aS)-2-fluorotetrahydro-1H-pyrrolizin-7a(5H)-yl]methoxy}-7,8,8a,9,12,13-hexahydro-11H-10-oxa-1,3,6,13a-tetraazanaphtho[1,8-ab]heptalen-5-yl]naphthalen-2-ol] are 592 nM and 85 nM.
For the compound `CCc1c(F)ccc2cc(O)cc(-c3nc4c5c(nc(OC[C@@]67CCCN6C[C@H](F)C7)nc5c3F)N3CCCOC[C@H]3CC4)c12` [compound 3, 5-ethyl-6-fluoro-4-[(8aR)-4-fluoro-2-{[(2R,7aS)-2-fluorotetrahydro-1H-pyrrolizin-7a(5H)-yl]methoxy}-7,8,8a,9,12,13-hexahydro-11H-10-oxa-1,3,6,13a-tetraazanaphtho[1,8-ab]heptalen-5-yl]naphthalen-2-ol], the results for the IC50 in the assay with SW620 (KRAS G12V) and in the assay on GP2D (KRAS G12D) were 11 nM and 6.3 nM, respectively.
The like results for `CCc1c(F)ccc2cc(O)cc(-c3nc4c5c(nc(OC[C@@]67CCCN6C[C@H](F)C7)nc5c3F)N3CCCOC[C@@H]3CC4)c12` [compound 4, 5-ethyl-6-fluoro-4-[(8aS)-4-fluoro-2-{[(2R,7aS)-2-fluorotetrahydro-1H-pyrrolizin-7a(5H)-yl]methoxy}-7,8,8a,9,12,13-hexahydro-11H-10-oxa-1,3,6,13a-tetraazanaphtho[1,8-ab]heptalen-5-yl]naphthalen-2-ol] were, in that order, 304 nM and 135 nM.
For `C#Cc1c(F)ccc2cc(O)cc(-c3nc4c5c(nc(OC[C@@]67CCCN6C[C@H](F)C7)nc5c3F)N3CCOCC[C@H]3CC4)c12` [compound 5, 5-ethynyl-6-fluoro-4-[(8aR)-4-fluoro-2-{[(2R,7aS)-2-fluorotetrahydro-1H-pyrrolizin-7a(5H)-yl]methoxy}-8,8a,9,10,12,13-hexahydro-7H-11-oxa-1,3,6,13a-tetraazanaphtho[1,8-ab]heptalen-5-yl]naphthalen-2-ol], the IC50 in the assay on SW620 (KRAS G12V) was found to be 20 nM; in the assay on GP2D (KRAS G12D), 4.2 nM.
As to `CCc1c(F)ccc2cc(O)cc(-c3nc4c5c(nc(OC[C@@]67CCCN6C[C@H](F)C7)nc5c3F)N3CCOCC[C@H]3CC4)c12` [compound 6, 5-ethyl-6-fluoro-4-[(8aR)-4-fluoro-2-{[(2R,7aS)-2-fluorotetrahydro-1H-pyrrolizin-7a(5H)-yl]methoxy}-8,8a,9,10,12,13-hexahydro-7H-11-oxa-1,3,6,13a-tetraazanaphtho[1,8-ab]heptalen-5-yl]naphthalen-2-ol], the IC50 stood at 26 nM in the assay on SW620 (KRAS G12V) and 21 nM in the assay on GP2D (KRAS G12D).
For the compound `C#Cc1c(F)ccc2cc(O)cc(-c3nc4c5c(nc(OC[C@@]67CCCN6C[C@H](F)C7)nc5c3F)N3CCCC[C@H]3COC4)c12` [compound 9, 5-ethynyl-6-fluoro-4-[(6aS)-1-fluoro-12-{[(2R,7aS)-2-fluorotetrahydro-1H-pyrrolizin-7a(5H)-yl]methoxy}-6,6a,7,8,9,10-hexahydro-4H-5-oxa-3,10a,11,13-tetraazabenzo[4,5]cycloocta[1,2,3-de]naphthalen-2-yl]naphthalen-2-ol], the IC50 came to 641 nM in the assay on SW620 (KRAS G12V) and 102 nM with GP2D (KRAS G12D).
On to `C#Cc1c(F)ccc2cc(O)cc(-c3nc4c5c(nc(OC[C@@]67CCCN6C[C@H](F)C7)nc5c3F)N3CCC[C@H]3COC4)c12` [compound 10, 5-ethynyl-6-fluoro-4-[(6aS)-1-fluoro-11-{[(2R,7aS)-2-fluorotetrahydro-1H-pyrrolizin-7a(5H)-yl]methoxy}-6a,7,8,9-tetrahydro-4H,6H-5-oxa-3,9a,10,12-tetraazacyclopenta[4,5]cycloocta[1,2,3-de]naphthalen-2-yl]naphthalen-2-ol], for which the IC50 in the assay on SW620 (KRAS G12V) and with GP2D (KRAS G12D) was 3000 nM in each case.
As to `C#Cc1c(F)ccc2cc(O)cc(-c3nc4c5c(nc(OC[C@@]67CCCN6C[C@H](F)C7)nc5c3F)N3CCCC[C@H]3C4)c12` [compound 13, 5-ethynyl-6-fluoro-4-((S)-4-fluoro-2-(((2R,7aS)-2-fluorotetrahydro-1H-pyrrolizin-7a(5H)-yl)methoxy)-7,7a,8,9,10,11-hexahydropyrido[1,2-g]pyrimido[4,5,6-de][1,6]naphthyridin-5-yl)naphthalen-2-ol], the IC50 with SW620 (KRAS G12V) worked out at 39 nM; in the assay with GP2D (KRAS G12D), 3.9 nM.
In the case of `C#Cc1c(F)ccc2cc(O)cc(-c3nc4c5c(nc(OC[C@@]67CCCN6C[C@H](F)C7)nc5c3F)N3CCOC[C@H]3C4)c12` [compound 18, 5-ethynyl-6-fluoro-4-((R)-4-fluoro-2-(((2R,7aS)-2-fluorotetrahydro-1H-pyrrolizin-7a(5H)-yl)methoxy)-7a,8,10,11-tetrahydro-7H-[1,4]oxazino[4,3-g]pyrimido[4,5,6-de][1,6]naphthyridin-5-yl)naphthalen-2-ol], the IC50 stood at 130 nM in the assay with SW620 (KRAS G12V) and 123 nM with GP2D (KRAS G12D).
In the case of `C#Cc1c(F)ccc2cc(O)cc(-c3nc4c5c(nc(OC[C@@]67CCCN6C[C@H](F)C7)nc5c3F)N3CCCC[C@H]3CC4)c12` [compound 20, 5-ethynyl-6-fluoro-4-[(8aS)-4-fluoro-2-{[(2R,7aS)-2-fluorotetrahydro-1H-pyrrolizin-7a(5H)-yl]methoxy}-8,8a,9,10,11,12-hexahydro-7H-1,3,6,12a-tetraazabenzo[4,5]cyclohepta[1,2,3-de]naphthalen-5-yl]naphthalen-2-ol], the IC50 in the assay on SW620 (KRAS G12V) stood at 47 nM; in the assay with GP2D (KRAS G12D), 10 nM.
With `C#Cc1c(F)ccc2cc(O)cc(-c3nc4c5c(nc(OC[C@@]67CCCN6C[C@H](F)C7)nc5c3F)N3CCCCC3C=C4)c12` (stereo partly drawn) [compound 21, 5-ethynyl-6-fluoro-4-(4-fluoro-2-{[(2R,7aS)-2-fluorotetrahydro-1H-pyrrolizin-7a(5H)-yl]methoxy}-9,10,11,12-tetrahydro-8aH-1,3,6,12a-tetraazabenzo[4,5]cyclohepta[1,2,3-de]naphthalen-5-yl)naphthalen-2-ol], the figures for the IC50 in the assay on SW620 (KRAS G12V) and in the assay on GP2D (KRAS G12D) were 20 nM and 2.9 nM, respectively.
Turning to `C#Cc1c(F)ccc2cc(O)cc(-c3nc4c5c(nc(OC[C@@]67CCCN6C[C@H](F)C7)nc5c3F)N3CCCCCC3CC4)c12` (stereo partly drawn) [compound 22], the IC50 in the assay with SW620 (KRAS G12V) is 248 nM; in the assay with GP2D (KRAS G12D), 32 nM.
`CCc1c(F)ccc2cc(O)cc(-c3nc4c5c(nc(OC[C@@]67CCCN6C[C@H](F)C7)nc5c3F)N3CCCCCC3CC4)c12` (stereo partly drawn) [compound 23, 5-ethyl-6-fluoro-4-(4-fluoro-2-{[(2R,7aS)-2-fluorotetrahydro-1H-pyrrolizin-7a(5H)-yl]methoxy}-7,8,8a,9,10,11,12,13-octahydro-1,3,6,13a-tetraazanaphtho[1,8-ab]heptalen-5-yl)naphthalen-2-ol]: the IC50 in the assay on SW620 (KRAS G12V) came out at 1450 nM; in the assay with GP2D (KRAS G12D) it was 172 nM.
As to `C#Cc1c(F)ccc2cc(O)cc(-c3nc4c5c(nc(OCC6(CN(C)C)CC6(F)F)nc5c3F)N3CCCCC3CC4)c12` (stereo not drawn) [compound 24, 4-[2-({1-[(dimethylamino)methyl]-2,2-difluorocyclopropyl}methoxy)-4-fluoro-8,8a,9,10,11,12-hexahydro-7H-1,3,6,12a-tetraazabenzo[4,5]cyclohepta[1,2,3-de]naphthalen-5-yl]-5-ethynyl-6-fluoronaphthalen-2-ol], the IC50 in the assay on SW620 (KRAS G12V) is 91 nM; in the assay with GP2D (KRAS G12D) it was 23 nM.
The corresponding values for `C#Cc1c(F)ccc2cc(O)cc(-c3nc4c5c(nc(OC[C@@]67CCCN6C[C@H](F)C7)nc5c3F)N3CCOCC[C@@H]3CC4)c12` [compound 25, 5-ethynyl-6-fluoro-4-[(8aS)-4-fluoro-2-{[(2R,7aS)-2-fluorotetrahydro-1H-pyrrolizin-7a(5H)-yl]methoxy}-8,8a,9,10,12,13-hexahydro-7H-11-oxa-1,3,6,13a-tetraazanaphtho[1,8-ab]heptalen-5-yl]naphthalen-2-ol] are 638 nM and 276 nM.
For `CCc1c(F)ccc2cc(O)cc(-c3nc4c5c(nc(OC[C@@]67CCCN6C[C@H](F)C7)nc5c3F)N3CCOCC[C@@H]3CC4)c12` [compound 26, 5-ethyl-6-fluoro-4-[(8aS)-4-fluoro-2-{[(2R,7aS)-2-fluorotetrahydro-1H-pyrrolizin-7a(5H)-yl]methoxy}-8,8a,9,10,12,13-hexahydro-7H-11-oxa-1,3,6,13a-tetraazanaphtho[1,8-ab]heptalen-5-yl]naphthalen-2-ol], the IC50 in the assay on SW620 (KRAS G12V) stood at 557 nM; with GP2D (KRAS G12D), 321 nM.
`C#Cc1c(F)ccc2cc(O)cc(-c3nc4c5c(nc(OC[C@@]67CCCN6C[C@H](F)C7)nc5c3F)N3CCCC[C@@H]3CC4)c12` [compound 27, 5-ethynyl-6-fluoro-4-[(8aR)-4-fluoro-2-{[(2R,7aS)-2-fluorotetrahydro-1H-pyrrolizin-7a(5H)-yl]methoxy}-8,8a,9,10,11,12-hexahydro-7H-1,3,6,12a-tetraazabenzo[4,5]cyclohepta[1,2,3-de]naphthalen-5-yl]naphthalen-2-ol]: the IC50 in the assay on SW620 (KRAS G12V) is 32 nM; in the assay on GP2D (KRAS G12D), 10 nM.
